What all share (assay type): cell-based
Experiment [1] concerns HCT-116-derived colonospheres. The experiment in a line: Formation of HCT-116-derived colonospheres (CSC tumorspheres). To be noted: Homo sapiens, HCT-116; @5 µM (footnote d); read-out: Inhibition of tumorsphere formation (%) HCT-116. Here is the method:
(BD Biosciences, Franklin Lakes, NJ, USA). All cells were maintained at 37 °C in a humidified incubator in an atmosphere of 5% CO2, and passaged every 2–3 days.
Additionally, they were cultured using RPMI media (Gibco/Life Technologies; Grand […]
(§1) Colonospheres, mamospheres and colony formation unit assays. 30.000 cells per well of MCF-7 cells (mamos pheres), HCT-116 cells (colonospheres) and CD34+ cells from patients (colony formation units) were seeded in serum free non- adherent medium or […]
(§2) MethoCult (Stem Cell). […]

For experiment [2], the system named is primary CD34+ cells from AML patients. The experiment in a line: CFU-E colony-forming unit assay, AML patients. Conditions: Homo sapiens. How it is done: (§3) Considering the inhibitory capacity of UCM-13369 on AML cell lines (shown in Figure 3A), the therapeutic potential was assessed in primary CD34+ cells from AML patients. Two ex vivo models were used from AML patients and healthy donors: CD34+ liquid HSC (hematopoietic stem cell) culture as a short-term model and CFU-E (colony-forming unit–erythroid) as a midterm model.
(§4) The test compound was diluted in PBS. […]
Primary cells. 1x10^6/mL total mononuclear bone marrow cells (as source of CD34+ HSCs) of healthy donors and AML patients were used. They were cultured using Stem SpanTM supplement with pencillin/streptomycin (500 U/ml), TPO (10 µg/mL), SCF (10 µg/mL), FLT3 (10 µg/mL), IL-6 (10 µg/mL) and IL-3 (10 µg/mL). After 24 h fresh medium was added. After 72 h in maintenance cells were ready to start the assays. All cells wer e maintained at 37 °C in a humidified incubator in an atmosphere of 5% CO2.
as §1, §2

The test system of experiment [3] is primary HSCs from AML patients. The experiment in a line: CD34+ liquid HSC short-term culture, AML patients. To be noted: Homo sapiens. How it is done:
as §3, §4
(§5) Primary cells. 1x10^6/mL total mononuclear bone marrow cells (as source of CD34+ HSCs) of healthy donors and AML patients were used. They were cultured using Stem SpanTM supplement with pencillin/streptomycin (500 U/ml), TPO (10 µg/mL), SCF (10 µg/mL), FLT3 (10 µg/mL), IL-6 (10 µg/mL) and IL-3 (10 µg/mL). After 24 h fresh medium was added. After 72 h in maintenance cells were ready to start the assays. All cells wer e maintained at 37 °C in a humidified incubator in an atmosphere of 5% CO2. […]

The subject of experiment [4] is primary HSCs from WT NPM1 AML patients. The experiment in a line: CD34+ liquid HSC short-term culture, WT NPM1 AML patients. Conditions: Homo sapiens, n = 3. Here is the method:
as §3, §4, §5

The next experiment deals with NPM1 C+. Briefly: Confocal microscopy of NPM1 subcellular localization in OCI-AML3 cells. To be noted: OCI-AML3, 10 μM. Here is the method:
To further elucidate the mechanism of action of UCM-13369, we studied the influence of the compound on the subcellular localization of the protein by confocal microscopy, using an Alexa Fluor-647-conjugated NPM1 primary antibody (Figure 4D).
Cells were plated onto glass coverslips or Greiner Bio-One μClear black 96-well plate (7.5 × 10^4 cells per well) and treated with compound UCM-13369 for 48 h. Then, cells were fixed with 4% paraformaldehyde for 15 min, permeabilized with 0.1% Triton X-100 for 30 min, and blocked in 5% bovine serum albumin for 1 h at rt. Incubation with primary antibodies against NPM1 (7H10B9, NOVUS Biologicals) was carried out overnight at 4 °C. Alexa Fluor-488-conjugated antimouse or antirabbit antibodies (Molecular Probes) were used for detection of the reported proteins by confocal microscopy. Nuclei were counterstained with 4′,6-diamidino-2-phenylindole (DAPI) bath. A total of 35 fields per well were acquired with ×40 magnification lens for those samples run in the Opera HCS system (PerkinElmer). Images were segmented using the DAPI staining and the coefficient of variation of NPM1 intensity per nucleus/cytoplasm was calculated using Definiens Developer XD software.

For the compound `COc1ccc(C2Cc3[nH]c4ccccc4c3C(CCNCC3CC3)C2N)cc1` (centres unmarked) [4b, 4-{2-[(Cyclopropylmethyl)amino]ethyl}-2-(4-methoxyphenyl)-2,3,4,9-tetrahydro-1H-carbazol-3-amine], the inhibition at 5 µM in experiment [1] was 100%. The IC50 came out at 300 nM in experiment [2], 1880 nM in experiment [3] and 3.77 µM in experiment [4]. The “Subcellular localization of NPM1 (in words)” value with NPM1 C+ is reported as “reduction of the cytoplasmic form of the protein”.

Broadly, the inhibition is the percentage by which the read-out fell short of the control. One may read the IC50 as the concentration that gives 50% inhibition. A lower IC50 goes with inhibition by little substance.

The values above are taken from article PMC11134387, “Cancer-Stem-Cell Phenotype-Guided Discovery of a Microbiota-Inspired Synthetic Compound Targeting NPM1 for Leukemia” (JACS Au, 2024).
